In the assay the test system is MV-4-11 cells. Description: Gene expression microarray analysis (Affymetrix PrimeView) and GSEA. On the set-up: RFU PODN (11730768_x_at) / Fold change /veh PODN (11730768_x_at) / RFU LINC00158 (11744669_a_at) / Fold change /veh LINC00158 (11744669_a_at) / RFU DUSP10 (11751237_a_at) / Fold change /veh DUSP10 (11751237_a_at) / RFU ID3 (11757404_x_at) / Fold change /veh ID3 (11757404_x_at) / RFU PLEKHG5 (11737974_s_at) / Fold change /veh PLEKHG5 (11737974_s_at) / RFU LRRC4B (11730491_at) / Fold change /veh LRRC4B (11730491_at) / RFU GIMAP4 (11747438_a_at) / Fold change /veh GIMAP4 (11747438_a_at) / RFU KRT8 (11758183_x_at) / Fold change /veh KRT8 (11758183_x_at) / RFU CNN1 (11734310_a_at) / Fold change /veh CNN1 (11734310_a_at) / RFU VPS37D (11726825_at) / Fold change /veh VPS37D (11726825_at) / RFU C10orf10 (11716522_x_at) / Fold change /veh C10orf10 (11716522_x_at) / RFU KIR2DL2 /// KIR2DL4 /// KIR2DL5A /// KIR2DL5B /// KIR2DS1 /// KIR2DS2 /// KIR2DS3 /// KIR2DS4 /// KIR3DL3 /// KIR3DL3 /// KIR3DS1 (11738374_at) / Fold change /veh KIR2DL2 /// KIR2DL4 /// KIR2DL5A /// KIR2DL5B /// KIR2DS1 /// KIR2DS2 /// KIR2DS3 /// KIR2DS4 /// KIR3DL3 /// KIR3DL3 /// KIR3DS1 (11738374_at) / RFU C1QL1 (11718748_at) / Fold change /veh C1QL1 (11718748_at) / RFU TMPRSS4 (11747572_a_at) / Fold change /veh TMPRSS4 (11747572_a_at) / RFU HAMP (11756126_x_at) / Fold change /veh HAMP (11756126_x_at) / RFU RNFT2 (11725882_a_at) / Fold change /veh RNFT2 (11725882_a_at) / RFU NR4A2 (11747474_a_at) / Fold change /veh NR4A2 (11747474_a_at) / RFU ABCC12 (11746883_a_at) / Fold change /veh ABCC12 (11746883_a_at) / RFU TMEM136 (11760407_x_at) / Fold change /veh TMEM136 (11760407_x_at) / RFU CLDN22 /// WWC2 (11732394_at) / Fold change /veh CLDN22 /// WWC2 (11732394_at) / RFU HLA-DPB1 (11760878_x_at) / Fold change /veh HLA-DPB1 (11760878_x_at) / RFU SPINT1 (11716480_a_at) / Fold change /veh SPINT1 (11716480_a_at) / RFU GAP43 (11754022_s_at) / Fold change /veh GAP43 (11754022_s_at) / RFU A4GNT (11735810_at) / Fold change /veh A4GNT (11735810_at) / RFU PRB3 (11715151_x_at) / Fold change /veh PRB3 (11715151_x_at) / RFU TUBB4B (11761932_at) / Fold change /veh TUBB4B (11761932_at) / RFU CAPN14 (11732068_a_at) / Fold change /veh CAPN14 (11732068_a_at) / RFU TMCC2 (11721928_a_at) / Fold change /veh TMCC2 (11721928_a_at) / RFU IRGQ (11745062_a_at) / Fold change /veh IRGQ (11745062_a_at) / RFU FAM174B (11720279_a_at) / Fold change /veh FAM174B (11720279_a_at) / RFU TMPRSS4 (11748680_a_at) / Fold change /veh TMPRSS4 (11748680_a_at) / RFU FAM212B (11763350_a_at) / Fold change /veh FAM212B (11763350_a_at) / RFU PLEKHG5 (11743358_a_at) / Fold change /veh PLEKHG5 (11743358_a_at) / RFU ZSCAN30 (11745921_a_at) / Fold change /veh ZSCAN30 (11745921_a_at) / RFU CMKLR1 (11741424_a_at) / Fold change /veh CMKLR1 (11741424_a_at) / RFU LOC101060620 /// MAPK8IP1 (11723275_at) / Fold change /veh LOC101060620 /// MAPK8IP1 (11723275_at) / RFU SPTSSB (11747773_x_at) / Fold change /veh SPTSSB (11747773_x_at) / RFU PRSS12 (11739890_at) / Fold change /veh PRSS12 (11739890_at) / RFU BIN1 (11741810_x_at) / Fold change /veh BIN1 (11741810_x_at) / RFU WNT11 (11732464_a_at) / Fold change /veh WNT11 (11732464_a_at) / RFU C10orf10 (11716521_a_at) / Fold change /veh C10orf10 (11716521_a_at) / RFU C5orf56 (11738089_at) / Fold change /veh C5orf56 (11738089_at) / RFU CYB561 (11721691_x_at) / Fold change /veh CYB561 (11721691_x_at) / RFU ANKRD19P (11752326_a_at) / Fold change /veh ANKRD19P (11752326_a_at) / RFU OR2T12 /// OR2T33 /// OR2T8 (11738714_s_at) / Fold change /veh OR2T12 /// OR2T33 /// OR2T8 (11738714_s_at) / RFU VCAN (11748164_a_at) / Fold change /veh VCAN (11748164_a_at) / RFU JSRP1 (11732532_at) / Fold change /veh JSRP1 (11732532_at) / RFU KRTAP10-11 (11738290_x_at) / Fold change /veh KRTAP10-11 (11738290_x_at) / RFU MYO3A (11730013_a_at) / Fold change /veh MYO3A (11730013_a_at) / RFU EBF3 (11725865_a_at) / Fold change /veh EBF3 (11725865_a_at) / RFU CAMK2N1 (11719241_x_at) / Fold change /veh CAMK2N1 (11719241_x_at) / RFU C5orf56 (11738088_a_at) / Fold change /veh C5orf56 (11738088_a_at) / RFU OLFML3 (11715873_a_at) / Fold change /veh OLFML3 (11715873_a_at) / RFU LOC100653217 /// NTM (11731650_a_at) / Fold change /veh LOC100653217 /// NTM (11731650_a_at) / RFU MAPK11 (11762145_a_at) / Fold change /veh MAPK11 (11762145_a_at) / RFU FIZ1 (11724087_x_at) / Fold change /veh FIZ1 (11724087_x_at) / RFU OASL (11726364_x_at) / Fold change /veh OASL (11726364_x_at) / RFU SOX15 (11748057_x_at) / Fold change /veh SOX15 (11748057_x_at) / RFU CD79A (11719716_a_at) / Fold change /veh CD79A (11719716_a_at) / RFU HIST1H1D (11736915_at) / Fold change /veh HIST1H1D (11736915_at) / RFU CASKIN2 (11723855_a_at) / Fold change /veh CASKIN2 (11723855_a_at) / RFU LOC730098 (11760151_x_at) / Fold change /veh LOC730098 (11760151_x_at) / RFU OR4N2 (11742367_at) / Fold change /veh OR4N2 (11742367_at) / RFU PRRT2 (11749266_a_at) / Fold change /veh PRRT2 (11749266_a_at) / RFU SNX32 (11753110_a_at) / Fold change /veh SNX32 (11753110_a_at) / RFU CDHR5 (11726645_a_at) / Fold change /veh CDHR5 (11726645_a_at) / RFU RCAN1 (11760418_a_at) / Fold change /veh RCAN1 (11760418_a_at) / RFU FAM167A (11723789_a_at) / Fold change /veh FAM167A (11723789_a_at) / RFU FAM26E (11764081_at) / Fold change /veh FAM26E (11764081_at) / RFU ISYNA1 (11749810_s_at) / Fold change /veh ISYNA1 (11749810_s_at) / RFU ACY1 (11761880_at) / Fold change /veh ACY1 (11761880_at) / RFU 11764098_at / Fold change /veh 11764098_at / RFU SAMD14 (11745864_x_at) / Fold change /veh SAMD14 (11745864_x_at) / RFU NPB (11741838_a_at) / Fold change /veh NPB (11741838_a_at) / RFU TMPRSS6 (11731388_a_at) / Fold change /veh TMPRSS6 (11731388_a_at) / RFU KRTAP10-2 (11738614_at) / Fold change /veh KRTAP10-2 (11738614_at) / RFU ARHGAP8 /// PRR5-ARHGAP8 (11727945_x_at) / Fold change /veh ARHGAP8 /// PRR5-ARHGAP8 (11727945_x_at) / RFU KRTAP5-7 /// NADSYN1 (11734609_at) / Fold change /veh KRTAP5-7 /// NADSYN1 (11734609_at) / RFU RASL12 (11751679_a_at) / Fold change /veh RASL12 (11751679_a_at) / RFU CDKN2B (11736163_a_at) / Fold change /veh CDKN2B (11736163_a_at) / RFU PRF1 (11729649_at) / Fold change /veh PRF1 (11729649_at) / RFU, ZNF638 /// ZNF638-IT1 / Fold change vs veh, ZNF638 /// ZNF638-IT1 / RFU, PANK3 / Fold change vs veh, PANK3 / RFU, SH3YL1 / Fold change vs veh, SH3YL1 / RFU, ZEB2 / Fold change vs veh, ZEB2 / RFU, NRIP1 / Fold change vs veh, NRIP1 / RFU, PTTG1IP / Fold change vs veh, PTTG1IP / RFU, CAPN2 / Fold change vs veh, CAPN2 / RFU, MED14 / Fold change vs veh, MED14 / RFU, SNORA58 / Fold change vs veh, SNORA58 / RFU, C1orf63 / Fold change vs veh, C1orf63 / RFU, LRRFIP1 / Fold change vs veh, LRRFIP1 / RFU, NDUFAF7 / Fold change vs veh, NDUFAF7 / RFU, SLC12A2 / Fold change vs veh, SLC12A2 / RFU, IBTK / Fold change vs veh, IBTK / RFU, ESF1 / Fold change vs veh, ESF1 / Fold change vs veh, TMEM50B / RFU, TAOK1 / Fold change vs veh, TAOK1 / RFU, ACBD3 / Fold change vs veh, ACBD3 / RFU, TMA16 / Fold change vs veh, TMA16 / RFU, RWDD3 / Fold change vs veh, RWDD3 / RFU, BCAT1 / Fold change vs veh, BCAT1 / RFU, EDEM3 / Fold change vs veh, EDEM3 / RFU, TMEM33 / Fold change vs veh, TMEM33 / RFU, WDR75 / Fold change vs veh, WDR75 / RFU, AHCTF1 / Fold change vs veh, AHCTF1 / RFU, TFRC / Fold change vs veh, TFRC / RFU, ZDHHC17 / Fold change vs veh, ZDHHC17 / RFU, NOM1 / Fold change vs veh, NOM1 / RFU, ARL8B / Fold change vs veh, ARL8B / RFU, ZBTB11 / Fold change vs veh, ZBTB11 / RFU, TAMM41 / Fold change vs veh, TAMM41 / RFU, KIAA1704 /// LOC100996395 / Fold change vs veh, KIAA1704 /// LOC100996395 / RFU, ING1 / Fold change vs veh, ING1 / RFU, TRMT61B / Fold change vs veh, TRMT61B / RFU, FUBP3 / Fold change vs veh, FUBP3 / RFU, TP53 / Fold change vs veh, TP53 / RFU, TNKS2 / Fold change vs veh, TNKS2 / RFU, ZFP14 / Fold change vs veh, ZFP14 / RFU, ACTR2 / Fold change vs veh, ACTR2 / RFU, PPP3R1 / Fold change vs veh, PPP3R1 / RFU, PIK3R1 / Fold change vs veh, PIK3R1 / RFU, HNRNPA1 / Fold change vs veh, HNRNPA1 / RFU, RNF170 / Fold change vs veh, RNF170 / RFU, ZNF28 / Fold change vs veh, ZNF28 / RFU, RNGTT / Fold change vs veh, RNGTT / RFU, OGT / Fold change vs veh, OGT / RFU, BRD1 / Fold change vs veh, BRD1 / RFU, MARS / Fold change vs veh, MARS / RFU, ZNF655 / Fold change vs veh, ZNF655 / RFU, FAHD1 / Fold change vs veh, FAHD1 / RFU, BDP1 / Fold change vs veh, BDP1 / RFU, LRRCC1 / Fold change vs veh, LRRCC1 / RFU, ARID1A / Fold change vs veh, ARID1A / RFU, ZNF146 / Fold change vs veh, ZNF146 / RFU, ZNF330 / Fold change vs veh, ZNF330 / RFU, GPN3 / Fold change vs veh, GPN3 / RFU, C9orf123 / Fold change vs veh, C9orf123 / RFU, N4BP2L2 / Fold change vs veh, N4BP2L2 / RFU, ARFIP1 / Fold change vs veh, ARFIP1 / RFU, FAM179B / Fold change vs veh, FAM179B / RFU, BCL10 / Fold change vs veh, BCL10 / RFU, UHRF1BP1L / Fold change vs veh, UHRF1BP1L / RFU, BET1 / Fold change vs veh, BET1 / RFU, CNOT2 / Fold change vs veh, CNOT2 / RFU, ZNF268 / Fold change vs veh, ZNF268 / Fold change vs veh, ZNF507 / RFU, DGCR2 / Fold change vs veh, DGCR2 / RFU, WDSUB1 / Fold change vs veh, WDSUB1 / Fold change vs veh, HSP90B1 /// MIR3652 / RFU, ADSS / Fold change vs veh, ADSS / RFU, GK / Fold change vs veh, GK / RFU, ZNF148 / Fold change vs veh, ZNF148 / RFU, TAF9 / Fold change vs veh, TAF9 / RFU, SLC1A5 / Fold change vs veh, SLC1A5 / RFU, SLMO2 / Fold change vs veh, SLMO2 / RFU, ABCC4 / Fold change vs veh, ABCC4 / RFU, LOC101060439 /// RAP1B / Fold change vs veh, LOC101060439 /// RAP1B / RFU, RFX7 / Fold change vs veh, RFX7 / RFU, GTPBP10 / Fold change vs veh, GTPBP10 / RFU, CNEP1R1 / Fold change vs veh, CNEP1R1 / RFU, BIVM-ERCC5 /// ERCC5 / Fold change vs veh, BIVM-ERCC5 /// ERCC5 / RFU, ILF3 / Fold change vs veh, ILF3 / RFU 11762660_at / Fold change /veh 11762660_at / RFU VCAN (11757783_s_at) / Fold change /veh VCAN (11757783_s_at) / RFU DDX43 (11728927_at) / Fold change /veh DDX43 (11728927_at) / RFU KRT8 (11758188_x_at) / Fold change /veh KRT8 (11758188_x_at) / RFU NKD1 (11759106_at) / Fold change /veh NKD1 (11759106_at) / RFU SRD5A1 (11742802_a_at) / Fold change /veh SRD5A1 (11742802_a_at) / RFU TPSAB1 /// TPSB2 (11721975_s_at) / Fold change /veh TPSAB1 /// TPSB2 (11721975_s_at) / RFU GSTM3 (11746129_a_at) / Fold change /veh GSTM3 (11746129_a_at) / RFU IL23R (11737362_x_at) / Fold change /veh IL23R (11737362_x_at) / RFU TMEM51 (11727254_a_at) / Fold change /veh TMEM51 (11727254_a_at) / RFU PIWIL2 (11732686_x_at) / Fold change /veh PIWIL2 (11732686_x_at) / RFU ORM1 (11744905_x_at) / Fold change /veh ORM1 (11744905_x_at) / RFU CCDC152 (11743942_at) / Fold change /veh CCDC152 (11743942_at) / RFU ECM1 (11717891_a_at) / Fold change /veh ECM1 (11717891_a_at) / RFU IL23R (11748794_a_at) / Fold change /veh IL23R (11748794_a_at) / RFU TNFAIP8L3 (11732012_x_at) / Fold change /veh TNFAIP8L3 (11732012_x_at) / RFU MBOAT4 (11741988_at) / Fold change /veh MBOAT4 (11741988_at) / RFU 11764193_at / Fold change /veh 11764193_at / RFU TMEM53 (11763286_at) / Fold change /veh TMEM53 (11763286_at) / RFU MAGEB2 (11727129_at) / Fold change /veh MAGEB2 (11727129_at) / RFU TMEM200A (11744735_a_at) / Fold change /veh TMEM200A (11744735_a_at) / RFU CCDC152 (11751479_a_at) / Fold change /veh CCDC152 (11751479_a_at) / RFU FAM211A (11726209_a_at) / Fold change /veh FAM211A (11726209_a_at) / RFU RGS16 (11746705_a_at) / Fold change /veh RGS16 (11746705_a_at) / RFU VCAN (11755009_s_at) / Fold change /veh VCAN (11755009_s_at) / RFU RHOB (11743442_s_at) / Fold change /veh RHOB (11743442_s_at) / RFU RGS16 (11720943_a_at) / Fold change /veh RGS16 (11720943_a_at) / RFU RGS16 (11720944_at) / Fold change /veh RGS16 (11720944_at) / RFU, VPS4B / Fold change vs veh, VPS4B / RFU, CREB1 / Fold change vs veh, CREB1 / RFU, DNAJC13 / Fold change vs veh, DNAJC13 / RFU, GNAQ / Fold change vs veh, GNAQ / RFU, CDK5R1 / Fold change vs veh, CDK5R1 / RFU, ZRANB3 / Fold change vs veh, ZRANB3 / RFU, CUL4A / Fold change vs veh, CUL4A / RFU, CCNY / Fold change vs veh, CCNY / RFU, UFL1 / Fold change vs veh, UFL1 / RFU, COG3 / Fold change vs veh, COG3 / RFU, DIAPH2 / Fold change vs veh, DIAPH2 / RFU, SKA2 / Fold change vs veh, SKA2 / RFU, AFF3 / Fold change vs veh, AFF3 / RFU, LMF1 / Fold change vs veh, LMF1 / RFU, IPO11 / Fold change vs veh, IPO11 / RFU, DFFB / Fold change vs veh, DFFB / RFU, FOXP1 / Fold change vs veh, FOXP1 / RFU, CARD8 / Fold change vs veh, CARD8 / RFU, STRN3 / Fold change vs veh, STRN3 / RFU, ADK / Fold change vs veh, ADK / RFU, RASSF2 / Fold change vs veh, RASSF2 / RFU, WIPF1 / Fold change vs veh, WIPF1 / RFU, LARP1B / Fold change vs veh, LARP1B / RFU, RASA1 / Fold change vs veh, RASA1 / RFU, RB1 / Fold change vs veh, RB1 / RFU, PPFIA1 / Fold change vs veh, PPFIA1 / RFU, MAT2A / Fold change vs veh, MAT2A / RFU, CCT5 / Fold change vs veh, CCT5 / RFU, WDR92 / Fold change vs veh, WDR92 / RFU, CUX1 / Fold change vs veh, CUX1 / RFU, TTC7A / Fold change vs veh, TTC7A / RFU, TMEM135 / Fold change vs veh, TMEM135 / RFU, DEPTOR / Fold change vs veh, DEPTOR / RFU, CPM / Fold change vs veh, CPM / RFU, DNAJB6 / Fold change vs veh, DNAJB6 / RFU, CACNA2D3 / Fold change vs veh, CACNA2D3 / RFU, DTX4 / Fold change vs veh, DTX4 / RFU, TFCP2 / Fold change vs veh, TFCP2 / RFU, GMCL1 /// GMCL1P1 / Fold change vs veh, GMCL1 /// GMCL1P1 / RFU, AEBP2 / Fold change vs veh, AEBP2 / RFU, SNHG1 /// SNORD22 /// SNORD25 /// SNORD26 /// SNORD27 /// SNORD28 /// SNORD29 /// SNORD31 / Fold change vs veh, SNHG1 /// SNORD22 /// SNORD25 /// SNORD26 /// SNORD27 /// SNORD28 /// SNORD29 /// SNORD31 / Fold change (Aza/veh), C12orf56 (ProbeSet 11735607_a_at) / Fold change (ACY-1035/veh), C12orf56 (ProbeSet 11735607_a_at) / Fold change (Aza/veh), FGFR1OP (ProbeSet 11751329_s_at) / Fold change (ACY-1035/veh), FGFR1OP (ProbeSet 11751329_s_at) / Fold change (Aza/veh), VPS36 (ProbeSet 11739960_a_at) / Fold change (ACY-1035/veh), VPS36 (ProbeSet 11739960_a_at) / RFU SYPL1 (11715823_x_at) / Fold change /veh SYPL1 (11715823_x_at) / RFU IGFBP7 (11715501_s_at) / Fold change /veh IGFBP7 (11715501_s_at) / RFU REEP3 (11722064_at) / Fold change /veh REEP3 (11722064_at) / RFU IGLL1 (11728026_x_at) / Fold change /veh IGLL1 (11728026_x_at): dose or concentration left out as unconfirmed. Type of assay: cell-based, human. The conditions noted are these: ProbeSet 11720154_at; LIST B.

Consider `Nc1ncn([C@@H]2O[C@H](CO)[C@@H](O)[C@H]2O)c(=O)n1` [azacitidine], for which the “Fold change vs veh, NRIP1” value was found to be 0.86.

Source of the values: publication PMC5218480 (PLoS ONE, 2017).
